What was measured:
[1] = tested on: C6 cells; assay: Tumor growth of C6 cells in nude mice; type: in vivo; settings: compared to no treatment control (FIG. 12)
Procedure: (§1) Tumor growth of B16 cells, C6 cells, or MDA435 cells in the presence or absence of ECM, and with or without cisplatin, were examined in nude mice. Cells, ECM and Cisplatin were injected simultaneously subcutaneously in the lower haunch of a nude mouse. Tumor growth was followed over time using photography, measurements of length and width, then finally by weight. FIGS. 8 and 9 show the growth of tumors from C6 cells in nude mice in the presence (FIG. 9) and absence (FIG. 8) of ECM on day 14 post-injection. FIGS. 10 and 11 show the growth of tumors from C6 cells in nude mice in the presence of ECM with cisplatin (FIG. 10) and cisplatin without ECM (FIG. 11) of ECM on day 14 post-injection.

[2] = tested on: MDA435 cells; assay: Tumor growth of MDA435 cells in nude mice; type: in vivo
Procedure: as §1

N.N.[Cl][Pt][Cl] [cisplatin]
tumor growth of C6 cells over 18 days [1]: no growth
tumor growth of MDA435 cells over 25 days ([2]; nude mice, compared to no treatment control (FIG. 14)): reduction in tumor mass to zero
tumor growth of MDA435 cells in nude mice ([2]; versus no treatment control with palpable tumors (FIGS. 13A-D)): reduced or no tumor growth

— patent US10675303B2, “Extracellular matrix compositions for the treatment of cancer” (ADAPTIVE BIOLOGIX, INC., priority 2008, dated 2020)
